In patent EP1977759A1, “Pharmaceutical composition comprising a cytokine” (4SC AG, priority 2007, dated 2008):

Tests used:
[1] = system: bovine viral diarrhea virus (BVDV) NADL strain; experiment: BVDV antiviral efficacy evaluation, drug-drug combination analysis (checkerboard, MTS staining, MacSynergy II); assay type: cell-based; conditions: in combination with TNF-α; MDBK cells with BVDV virus; interaction by Bliss independence (MacSynergy II)
Description: (§1) The substances were solubilized in DMSO. […]
(§2) The bovine viral diarrhea virus (BVDV) NADL strain antiviral evaluation assay and drug-drug combination analysis was performed as described in Antimicro. Agents Chemother. 2003; 47: 2293-8. BVDV is frequently employed as a hepatitis C virus surrogate model in the study of antiviral agents (Antiviral Res. 2003; 60: 1-15). Madin-Darby bovine kidney cells were trypsinized, pelleted, counted and resuspended at 1×10^4/well in tissue culture medium in 96-well flat bottom, tissue culture plates in volume of 100µl per well. […]
(§3) At assay termination, the assay plates were stained with the soluble tetrazolium-based dye MTS (CellTiter Reagent Promega) to determine cell viability and quantify compound toxicity. MTS is metabolized y the mitochondrial enzymes of metabolically active cells to yield a soluble formazan product, allowing the rapid quantitative analysis of cell viability and compound cytotoxicity. […] Adhesive sealers were used in place of the lids, the sealed plate was inverted several times to mix the soluble formazan product and the plate was read spectrophotometrically at 490 nm and 650 nm with a Molecular Devices Vmax plate reader. […]
(§4) Theoretical additive values are calculated from the dose response curves for each substance used individually. […]

[2] = system: Madin-Darby bovine kidney cells; experiment: BVDV assay, cytotoxicity of the drug-drug combination (MTS staining for cell viability); assay type: cell-based; conditions: in combination with TNF-α; MDBK cells; interaction by Bliss independence (MacSynergy II)
Description: as §1, §2, §3, §4

O=C(c1ccccc1)c1ccc2nc(NC(=O)c3csc(C4CCN(c5ncnc6ccsc56)CC4)n3)[nH]c2c1 [Compound 273, 2-(1-Thieno[3,2-d]pyrimidin-4-yl-piperidin-4-yl)-thiazole-4-carboxylic acid (5-b enzoyl-1H-benzaimidazol-2-yl)-amide]
combined antiviral activity [1]: highly synergistic behaviour | combined cytotoxic activity [2]: highly antagonistic behaviour
